Results: PubChem BioAssay AID2060627 (Molecular Pharmacology Branch, DTP, NCI, 2025)

Test system: 156681-154-R-J1-PDC complex spheroid viability
Assay: Anticancer human tumor 156681-154-R-J1-PDC patient-derived melanoma cell line growth inhibition [CLK]
Settings: for IC50: curve of first compound; for viability, T/C: stronger effect = lower value
Outline: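 Multi-cell-type spheroids combined patient-derived tumor cells with HUVEC endothelial cells and human mesenchymal stem cells. Paired agents were dosed in half-log steps down from about clinical Cmax, or from 10 microM where Cmax was unknown.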
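Also: spheroids exposed to the agents for seven days.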
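For viability, T/C in this document: 100% = DMSO vehicle control viability.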

IC50 (second compound 0.0316 µM): > 10000 nM
IC50 (second compound 0.1 µM): > 10000 nM
IC50 (second compound 0.316 µM): > 10000 nM
IC50 (second compound 1 µM): 114 nM
IC50 (second compound 3.16 µM): < 31.6 nM
IC50 (second compound 10 µM): < 31.6 nM
SMILES: C#Cc1c(F)ccc2cc(O)cc(-c3ncc4c(N5CC6CCC(C5)N6)nc(OCC56CCCN5CC(F)C6)nc4c3F)c12 (configuration not stated) + CNC(=O)c1ccc(Nc2nc(OC3CCCC3)c3c(-c4ccc5nc(C)oc5c4)c[nH]c3n2)c(OC)c1
viability, T/C (second compound 0.0316 µM, first compound 0.0316 µM): 86%
viability, T/C (second compound 0.0316 µM, first compound 0.1 µM): 94.4%
viability, T/C (second compound 0.0316 µM, first compound 0.316 µM): 104%
viability, T/C (second compound 0.0316 µM, first compound 1 µM): 109%
viability, T/C (second compound 0.0316 µM, first compound 3.16 µM): 113%
viability, T/C (second compound 0.0316 µM, first compound 10 µM): 101%
viability, T/C (second compound 0.1 µM, first compound 0.0316 µM): 53.5%
viability, T/C (second compound 0.1 µM, first compound 0.1 µM): 73.8%
viability, T/C (second compound 0.1 µM, first compound 0.316 µM): 60.3%
viability, T/C (second compound 0.1 µM, first compound 1 µM): 70%
viability, T/C (second compound 0.1 µM, first compound 3.16 µM): 73.6%
viability, T/C (second compound 0.1 µM, first compound 10 µM): 62.9%
viability, T/C (second compound 0.316 µM, first compound 0.0316 µM): 62.4%
viability, T/C (second compound 0.316 µM, first compound 0.1 µM): 48.6%
viability, T/C (second compound 0.316 µM, first compound 0.316 µM): 66.4%
viability, T/C (second compound 0.316 µM, first compound 1 µM): 65.9%
viability, T/C (second compound 0.316 µM, first compound 3.16 µM): 67%
viability, T/C (second compound 0.316 µM, first compound 10 µM): 65.2%
viability, T/C (second compound 1 µM, first compound 0.0316 µM): 43.2%
viability, T/C (second compound 1 µM, first compound 0.1 µM): 53.5%
viability, T/C (second compound 1 µM, first compound 0.316 µM): 47.9%
viability, T/C (second compound 1 µM, first compound 1 µM): 56%
viability, T/C (second compound 1 µM, first compound 3.16 µM): 63.6%
viability, T/C (second compound 1 µM, first compound 10 µM): 31.6%
viability, T/C (second compound 3.16 µM, first compound 0.0316 µM): 54.5%
viability, T/C (second compound 3.16 µM, first compound 0.1 µM): 49.8%
viability, T/C (second compound 3.16 µM, first compound 0.316 µM): 39.2%
viability, T/C (second compound 3.16 µM, first compound 1 µM): 49.8%
viability, T/C (second compound 3.16 µM, first compound 3.16 µM): 50.4%
viability, T/C (second compound 3.16 µM, first compound 10 µM): 20.2%
viability, T/C (second compound 10 µM, first compound 0.0316 µM): 45.7%
viability, T/C (second compound 10 µM, first compound 0.1 µM): 38.5%
viability, T/C (second compound 10 µM, first compound 0.316 µM): 36.7%
viability, T/C (second compound 10 µM, first compound 1 µM): 50%
viability, T/C (second compound 10 µM, first compound 3.16 µM): 43%
viability, T/C (second compound 10 µM, first compound 10 µM): 13.2%
